In brackets after ≈: the same amount, converted by molar mass. Read-outs that look alike come from different tables or passages of the source.

The subject of one data set is influenza A and B. As to conditions: administered orally or intraperitoneally; cited from earlier work.
Data set [1] relates to Influenza virus A/WSN/33 (H1N1). Nature of the data set: microbe, parasite or virus in culture. In kind it is cell-based. The following applies: viral strain: Influenza virus A/WSN/33 (H1N1); Cell: MDBK; […]; 3 days.
In another data set the test system is MDBK cells. The following applies: Cell: MDBK, no virus; concentration at which 50% of the cells are killed; 4320 min.
In a further data set the test system is A/Kumamoto/5/67 (H2N2). In words: microbe, parasite or virus in culture. In kind it is cell-based. As to conditions: Influenza A virus, H2N2, MDCK, 72 h.
A short description of data set [2]: Cytotoxicity for MDCK cells. The following applies: dog, Cell: MDCK, no virus. It counts as cell-based. On the procedure: As in the measurement of anti-viral activity, samples were added to the cells, and incubated with 50 µl of culture medium instead of the viral dilution. The results are expressed as CC50 which is defined as the concentration of the compound at which 50% of the cells are killed due to the toxicity of the compound.
MDCK cells (derived from dog kidney) were cultured on 12-well plates using E-MEM supplemented by 10% fetal bovine serum. To each well was added 250 µl each of a viral dilution prepared by 10-fold serial dilution with E-MEM, followed by incubation for one hour under 5% CO2 at 37 °C. After removal of the viral solution, one ml of E-MEM containing 0.8% agarose, 0.5% bovine serum albumin and 2 µg/ml trypsin, and an appropriately diluted test compound was added. The plate was inverted, and incubated for 3 days under 5% CO2 at 37 °C. The number of plaques formed was counted, and the IC50 value, which is the concentration of the compound at which the number of plaques decreases by 50% compared to that of control which lacks the test compound, was determined. As in the above section 2), CC50 values for MDCK cells were determined.

Another data set deals with A/91/N796 (H3N2). In words: Anti-viral activities against subtypes of influenza A and B (plaque number). It counts as cell-based. The following applies: Influenza A virus, 72 h.
For another data set, the system named is B/91N759. Described as above. In kind it is cell-based. The following applies: Influenza B virus, 72 h.
A further data set relates to A/WSN/33 (H1N1). The data set is described as above. In kind it is cell-based. The following applies: Influenza A virus, 72 h.
For another data set, the system named is A/Osaka/5/70 (H3N2). The description is as above. In kind it is cell-based. The following applies: Influenza A virus, 72 h.
Where [3] appears, read: (4): A/91/N796 (H3N2), Cell: MDCK, number of plaques decreases by 50%, 3 days, read-out: IC50.
Where [4] appears, read: (5): B/91N759, Cell: MDCK, number of plaques decreases by 50%, 3 days, read-out: IC50.
The mark [5] stands for this setting: (1): A/WSN/33 (H1N1), Cell: MDCK, number of plaques decreases by 50%, 3 days, read-out: IC50.
Where [6] appears, read: (3): A/Osaka/5/70 (H3N2), Cell: MDCK, number of plaques decreases by 50%, 3 days, read-out: IC50.

As to `CC(=O)N[C@H]1[C@H]([C@H](O)[C@H](O)CO)OC(C(=O)O)=C[C@@H]1NC(=N)N` [4-guanidino-Neu5Ac2en], the “activity against influenza A and B” value with influenza A and B is recorded as “has not a satisfactory activity”.
A word on the IC50: it is the point on the concentration scale where inhibition reaches its midpoint. Broadly, the CC50 is the concentration that lowers cell viability or growth by half. A high value points to lower toxicity to the cells. Consider `CCOC(=O)C=CC(=O)Nc1ccc(S(=O)(=O)O[C@H]2C[C@@]34Oc5c(c(O)cc6c5CNC6=O)C[C@]3(C)[C@@H](C)CC[C@H]4C(C)(C)[C@H]2O)cc1` [Compound (50f), (6aR, 7S, 9aS, 11R, 12S, 13aS)-12-[4-(3-ethoxycarbonyl-1-oxo-2-propenyl)amino] phenylsulfonyloxy-2,3,6,6a, 7,8,9,9a, 10, 11, 12, 13-dodecahydro-5, 11-dihydroxy-6a, 7, 10, 10-tetramethyl-3-oxo-1H-benzo[8,8a][1]benzopyrano[2,3-e]isoindole], for which the IC50 in data set [1] was 0.01 µg/mL (≈ 0.0146 µM). The cytotoxic concentration (CC50) with MDBK cells was 5 µg/mL (≈ 7.32 µM).
The matching figures for `CC(=O)O[C@@H]1C(=O)C[C@@]23Oc4c(c(O)cc5c4CNC5=O)C[C@]2(C)[C@@H](C)CC[C@H]3C1(C)C` [Compound (53a), (6aR, 7S, 9aS, 11S, 13aS)-11-acetoxy-2,3,6,6a, 7,8,9,9a, 10 11, 12, 13-dodecahydro-5-hydroxy-6a, 7, 10, 10-tetramethyl-3,12-dioxo-1H-benzo[8,8a][1]benzopyrano[2,3-e]isoindole]: 0.04 to 0.08 µg/mL and over 10 µg/mL.
In the case of `C[C@H]1CC[C@H]2C(C)(C)[C@@H](O)CC[C@]23Oc2c(c(O)cc4c2CNC4=O)C[C@]13C` [SQ-02-S5(2), (6a R, 7S, 9a S, 11 S, 13a S)-2,3,6,6a, 7,8,9,9a, 10, 11, 12, 13-dodecahydro-5, 11-dihydroxy-6a, 7, 10, 10-tetramethyl-3-oxo-1H-benzo[8,8a][1]benzopyrano[2,3-e]isoindole], the half-inhibitory concentration (IC50) in the data set with A/Kumamoto/5/67 (H2N2) was 0.1 to 1 µg/mL (≈ 0.259 to 2.59 µM); in the data set on A/91/N796 (H3N2) (H3N2, MDCK), 1 µg/mL (≈ 2.59 µM); in the data set with B/91N759 (MDCK) it was 1 µg/mL (≈ 2.59 µM); with A/WSN/33 (H1N1) (MDCK) it was 0.001 to 0.01 µg/mL (≈ 0.00259 to 0.0259 µM); with A/Osaka/5/70 (H3N2) (H3N2, MDCK) it was 0.1 to 1 µg/mL (≈ 0.259 to 2.59 µM). Moreover, the CC50 at 3 days in [2] stood at 25 µg/mL (≈ 64.9 µM).
For the molecule `C[C@H]1CC[C@H]2C(C)(C)C(=O)CC[C@]23Oc2c(c(O)cc4c2C(=O)NC4=O)C[C@]13C` [SQ-02-S5-OX1(11)], the IC50 is 0.01 to 0.1 µg/mL (≈ 0.0252 to 0.252 µM) in the data set with A/Kumamoto/5/67 (H2N2); 1 µg/mL (≈ 2.52 µM) in the data set with A/91/N796 (H3N2) (setting [3]); 0.1 µg/mL (≈ 0.252 µM) in the data set with B/91N759 (setting [4]); 0.001 to 0.01 µg/mL (≈ 0.00252 to 0.0252 µM) with A/WSN/33 (H1N1) (setting [5]); 0.1 to 1 µg/mL (≈ 0.252 to 2.52 µM) in the data set on A/Osaka/5/70 (H3N2) (setting [6]). Moreover, the 50% cytotoxic concentration (CC50) in [2] was 25 to 30 µg/mL (≈ 62.9 to 75.5 µM).
Consider `C[C@H]1CC[C@H]2C(C)(C)C(=O)CC[C@]23Oc2c(c(O)cc4c2CNC4=O)C[C@]13C` [SQ-02-S5-OX2(12)], for which the half-inhibitory concentration (IC50) in the data set with A/Kumamoto/5/67 (H2N2) is 0.01 to 0.1 µg/mL (≈ 0.0261 to 0.261 µM); with A/91/N796 (H3N2) (setting [3]), 1 µg/mL (≈ 2.61 µM); in the data set on B/91N759 (setting [4]), 0.1 to 1 µg/mL (≈ 0.261 to 2.61 µM); in the data set on A/WSN/33 (H1N1) (setting [5]) it was 0.001 to 0.01 µg/mL (≈ 0.00261 to 0.0261 µM); with A/Osaka/5/70 (H3N2) (setting [6]), 1 to 10 µg/mL (≈ 2.61 to 26.1 µM). Also, in [2], the half-maximal cytotoxic concentration (CC50) was 25 to 50 µg/mL (≈ 65.2 to 130 µM).

Values taken from patent EP0855398B1, “SESQUITERPENE DERIVATIVES HAVING ANTIVIRAL ACTIVITY” (SHIONOGI & CO., LTD., priority 1995, dated 1997).
